Our source for the GI50 and TGI values is PubChem BioAssay (NCI).

Values joined by “and” are separate entries in the source; they are usually repeats but may differ in a detail not shown here. Identical values can stand only once.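 1) Cells in 96-well plates. 2) Compound, 48 h, 5 concentrations. 3) Linear interpolation between surrounding doses. 4) Unreached endpoint = highest concentration. Abbreviation: GI50, concentration required for 50% inhibition of growth. TGI: concentration producing complete growth inhibition.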

What all share (test): DTP human tumour cell line panel, 48 h
The test system of test [1] is HT29 colon.
Test [2] has as its system IGROV1 ovarian.
Test [3] deals with K-562 leukemia.
In test [4] the test system is MOLT-4 leukemia.
In test [5] the test system is OVCAR-5 ovarian.
Test [6] has as its system OVCAR-8 ovarian.
Test [7] concerns SF-268 CNS.
In test [8] the test system is SF-539 CNS.
In test [9] the test system is SW-620 colon.
The subject of test [10] is TK-10 renal.

In the case of `Cc1cc(C)c2nc(Nc3nc(C)c(C)c(=O)[nH]3)nc(C)c2c1`, the GI50 in test [1] is 2.25 µM; in [2] it was 2.85 µM; in test [3] it was 2.53 µM; in test [4], 2.35 µM; in [5], 3.01 µM; in test [6], 2.83 µM. The GI50 is 2.82 µM in test [7], 2.54 µM in test [8], 3.12 µM in test [9] and 3.05 µM in test [10]. The TGI in test [1] amounted to 6.04 µM; in [2], 12.8 µM; in test [3], 11.1 µM; in [4], 9.37 µM; in test [5], 18.5 µM; in [6], 10.7 µM. For the same compound, the concentration for total growth inhibition (TGI) in test [7] worked out at 13.8 µM; in test [8], 10.3 µM; in test [9], 15.5 µM; in test [10], 17.9 µM.
As for `O=C1CCc2cc([N+](=O)[O-])ccc2O1`, the TGI in test [1], in test [2], in test [3], in test [4], in [5] and in test [6] was above 100 µM throughout. Also, the TGI in test [7], in test [8], in [9] and in [10] was above 100 µM throughout.
On to `COc1cc(Oc2cnc3cc(N)cc(N)c3n2)cc(OC)c1OC`, for which the GI50 in test [1] was 18.5 µM; in test [2], 32.8 µM; in test [3], 38.1 µM; in [4], 20.2 µM; in [5], 23 µM; in [6] it was 58.8 µM. In addition, the GI50 was 67.3 µM in test [7], 46.2 µM in test [8], 44.3 µM in [9] and 33.3 µM in test [10]. Besides, the total growth inhibition concentration (TGI) in test [1] is 40.4 µM; in test [2], above 100 µM; in test [3], above 100 µM; in [4], 51.9 µM; in test [5] it was 62.6 µM; in test [6] it was above 100 µM. The TGI in test [7], in test [8], in [9] and in test [10] was above 100 µM throughout.
As for `COc1ccc(/C=N\N2C(=O)Cc3ccccc32)cc1`, the TGI in [1], in test [2], in test [3], in [4], in test [5] and in test [6] was above 100 µM in each case. The TGI in test [7], in [8], in test [9] and in [10] was above 100 µM throughout.
As for `CCCCCc1c(C)[nH]c(/C=C2\N=C(c3ccc[nH]3)C=C2Oc2ccc(OC)cc2)c1C`, the GI50 is 0.068 µM and 0.0214 µM in test [1]; 0.244 µM and 0.0925 µM in test [2]; 0.0719 µM and 0.0435 µM in test [3]; 0.107 µM and 0.0481 µM in [4]; 0.128 µM and 0.0591 µM in [5]; 0.18 µM and 0.0412 µM in test [6]. The 50% growth inhibitory concentration (GI50) in [7] was 0.154 µM and 0.0526 µM; in test [8] it was 0.156 µM and 0.0431 µM; in test [9], 0.0587 µM and 0.0252 µM; in test [10], 0.335 µM and 0.0439 µM. Also, the concentration for total growth inhibition (TGI) was 1.94 µM and 1.26 µM in [1]; 1.49 µM and 3.07 µM in [2]; above 100 µM in test [3]; 1.17 µM and 1.67 µM in test [4]; 4.56 µM and 2.02 µM in [5]; 1.12 µM and 0.207 µM in [6]. Also, the concentration for total growth inhibition (TGI) was 1.92 µM and 1.46 µM in test [7]; 0.551 µM and 0.212 µM in test [8]; 1.53 µM and 0.518 µM in test [9]; 1.69 µM and 0.331 µM in [10].
Take `COc1ccc(-n2cc(-c3ccc(Cl)cc3)[nH]c2=S)cc1Cl`: the GI50 is 74.2 µM in test [1]; 30.2 µM in [2]; above 100 µM in test [3]; 43 µM in [4]; above 100 µM in test [5]; 37.4 µM in test [6]. In addition, the GI50 in test [7] is 28 µM; in test [8], 19.9 µM; in test [9], above 100 µM; in test [10], 47.3 µM. In addition, the TGI in [1], in test [2], in [3], in [4], in [5] and in [6] was above 100 µM in each case. The TGI in test [7] was 76.5 µM; in [8], 44.3 µM; in test [9], above 100 µM; in test [10], above 100 µM.
`COc1ccc(CNCCN2C(=O)c3ccc4c5c(ccc(c35)C2=O)C(=O)N(CCNCc2ccc(OC)cc2)C4=O)cc1`: the GI50 in test [1] is 0.122 µM; in test [2], 0.204 µM; in test [3] it was 0.217 µM; in test [4] it was 0.282 µM; in [5], 0.428 µM; in test [6], 0.178 µM. Besides, the GI50 was 0.284 µM in test [7], 0.274 µM in test [8], 0.168 µM in test [9] and 0.201 µM in [10]. Also, the TGI amounted to 0.403 µM in test [1]; 0.67 µM in test [2]; 0.96 µM in [3]; 0.92 µM in test [4]; 1.89 µM in test [5]; 0.611 µM in test [6]. Moreover, the TGI in test [7] was determined as 1.17 µM; in test [8], 0.872 µM; in [9], 0.506 µM; in [10], 0.754 µM.
Consider `COc1cc(OC)cc(-c2n[nH]nc2-c2ccc3c(c2)OCO3)c1`, for which the GI50 was 0.392 µM in test [1]; 0.432 µM in test [2]; 0.0496 µM in test [3]; 0.572 µM in test [4]; 1.47 µM in test [5]; 0.512 µM in test [6]. The GI50 in [7] is 2.37 µM; in test [8], 0.181 µM; in [9] it was 0.105 µM; in [10], 17.6 µM. Moreover, the TGI was 12.5 µM in test [1]; above 100 µM in [2]; above 100 µM in [3]; 51.8 µM in [4]; above 100 µM in [5]; 31.3 µM in [6]. In addition, the TGI is above 100 µM in test [7], 0.546 µM in test [8], above 100 µM in test [9] and above 100 µM in test [10].
Consider `NC(=O)NC1=NCCC(=O)N1CCc1c[nH]c2ccccc12`, for which the TGI in test [1] was 47.3 µM; in [2], 42.1 µM; in [3], 32.9 µM; in test [4], 39.1 µM; in [5], above 100 µM; in test [6] it was 32.2 µM. The TGI was 47 µM in [7], 30.9 µM in test [8], 57.7 µM in [9] and 48.6 µM in test [10].
On to `NS(=O)(=O)OC[C@H]1O[C@@H](n2cnc3c(N[C@H]4CCc5ccccc54)ncnc32)[C@H](O)[C@@H]1O`, for which the 50% growth inhibitory concentration (GI50) was 0.327 µM in test [1]; 0.174 µM in [2]; 0.0369 µM in [3]; 0.22 µM in test [4]; 0.305 µM in test [5]; 0.0865 µM in test [6]. Also, the GI50 in [7] was 0.122 µM; in test [8], 0.0351 µM; in test [9], 0.245 µM; in test [10] it was 0.608 µM. Further, the TGI in test [1] is 5.55 µM; in test [2] it was 1 µM; in test [3], above 100 µM; in test [4], 1.99 µM; in test [5], 2.24 µM; in test [6], 1.02 µM. Besides, the TGI in test [7] was determined as 0.449 µM; in [8], 0.117 µM; in test [9] it was 5.82 µM; in [10], 3.24 µM.
Take `COC1=C(NC(C)=O)C(=O)c2nc3n(c2C1=O)CCC3`: the TGI in [1] is 66.2 µM; in test [2], 35.6 µM; in [3] it was above 65.1 µM; in [4], above 66.8 µM; in test [5] it was 34.6 µM; in test [6] it was 33.5 µM. Moreover, the TGI in test [7] is 33.2 µM; in test [8] it was 32.9 µM; in test [9] it was 42.4 µM; in test [10], above 66.6 µM.
For `COC(=O)C1=C(O)C(C(=O)OC)[C@@]2(O)[C@@H](C(=O)OC)C(c3ccc(OC(=O)C(Cc4ccccc4)NC(C)=O)cc3)C[C@@H]1[C@@H]2C(=O)OC` (stereo not given in full), the GI50 in [1] was 15.6 µM; in [2] it was 45.7 µM; in [3], 19.1 µM; in test [4] it was 14.8 µM; in test [5], 35 µM; in test [6], 23.1 µM. In addition, the GI50 was 21.9 µM in [7], 33.6 µM in [8], 29.7 µM in [9] and 18.5 µM in [10]. For the same compound, the TGI in test [1] was 33.6 µM; in [2] it was above 100 µM; in test [3], above 100 µM; in test [4] it was 46.4 µM; in test [5], 97.3 µM; in test [6], 59.2 µM. Also, the TGI in test [7] is 88.3 µM; in [8] it was 73.1 µM; in test [9] it was above 100 µM; in test [10], 44.1 µM.
Regarding `c1ccc2c(c1)N=c1ccccc1=P21c2ccccc2Nc2ccccc21`, the total growth inhibition concentration (TGI) is 10.1 µM in [1]; 10.6 µM in test [2]; above 100 µM in test [3]; 1.67 µM in test [4]; 3.81 µM in test [5]; 5.62 µM in [6]. Also, the TGI was determined as 10.2 µM in [7], 9.24 µM in test [8], 13 µM in [9] and 8.12 µM in test [10].
